Source: paper PMC8776228 (International Journal of Molecular Sciences, 2022)
≈ marks a conversion by molar mass, not a printed value. Read-outs that look alike come from different tables or passages of the source.

Experiments:
[1] = tested on: M. tuberculosis H37Rv-pSODIT:dprE1; test: microbe, parasite or virus in culture; type: cell-based, Mycobacterium tuberculosis
[2] = tested on: M. tuberculosis NTB1 (DprE1 C387S); type: cell-based, Mycobacterium tuberculosis
[3] = tested on: M. tuberculosis NTB9 (DprE1 C387G); type: cell-based, Mycobacterium tuberculosis
[4] = tested on: M. tuberculosis DR1 (mmpL3, V681I); type: cell-based, Mycobacterium tuberculosis
[5] = tested on: M. tuberculosis 81.10 (ethA, D1109-37); type: cell-based, Mycobacterium tuberculosis
[6] = tested on: M. tuberculosis 53.8 (Rv0579, L240V); type: cell-based, Mycobacterium tuberculosis
[7] = tested on: M. tuberculosis 88.1 (coaA, Q207R); type: cell-based, Mycobacterium tuberculosis
[8] = tested on: M. tuberculosis IC2; test: microbe, parasite or virus in culture; type: cell-based; settings: Mycobacterium tuberculosis
[9] = tested on: M. tuberculosis Ty1 (Rv3405c, c190t); type: cell-based, Mycobacterium tuberculosis
[10] = tested on: M. tuberculosis 53.3 (Rv2466c, W28S); type: cell-based, Mycobacterium tuberculosis
[11] = tested on: M. tuberculosis 88.7 (pyrG, V186G); type: cell-based, Mycobacterium tuberculosis
[12] = tested on: M. tuberculosis IC1; test: microbe, parasite or virus in culture; type: cell-based; settings: Mycobacterium tuberculosis

## C[C@H]1COC2(CCN(c3nc(=O)c4cc(C(F)(F)F)cc([N+](=O)[O-])c4s3)CC2)O1 [BTZ043]
[1]; Mycobacterium tuberculosis, H37RV, read-out: MIC BTZ043
  MIC: 1 µg/mL (≈ 2.32 µM)
[2]
  MIC BTZ043: >1 µg/mL
[3]
  MIC BTZ043: 1 µg/mL (≈ 2.32 µM)

## NNC(=O)c1ccncc1 [INH, isoniazid]
[4]
  MIC INH: 0.025 µg/mL (≈ 0.182 µM)
[5]
  MIC INH: 0.025 µg/mL (≈ 0.182 µM)
[6]
  MIC INH: 0.025 µg/mL (≈ 0.182 µM)
[7]
  MIC INH: 0.025 µg/mL (≈ 0.182 µM)
[8]; IC2, read-out: MIC INH
  MIC: > 0.2 µg/mL
[2]
  MIC INH: 0.025 µg/mL (≈ 0.182 µM)
[9]
  MIC INH: 0.025 µg/mL (≈ 0.182 µM)
[10]
  MIC INH: 0.025 µg/mL (≈ 0.182 µM)
[3]
  MIC INH: 0.025 µg/mL (≈ 0.182 µM)
[11]
  MIC INH: 0.025 µg/mL (≈ 0.182 µM)
[12]; IC1, read-out: MIC INH
  MIC: > 0.2 µg/mL

## CO[C@H]1C[C@H](O[C@@H]2/C(C)=C/C[C@@H]3C[C@@H](C[C@]4(CC[C@H](C)[C@@H](C5CCCCC5)O4)O3)OC(=O)[C@@H]3C=C(C)/C(=N/O)[C@H]4OC/C(=C\C=C\[C@@H]2C)[C@]43O)O[C@@H](C)[C@@H]1O [Selamectin]
[1]
  change in susceptibility upon overexpression of dprE1 (MIC): did not confer changes in the susceptibility
[4]
  MIC SEL: 2 to 4 µg/mL
[5]
  MIC SEL: 4 to 8 µg/mL
[6]
  MIC SEL: 2 to 4 µg/mL
[7]
  MIC SEL: 2 to 4 µg/mL
[8]; IC2, read-out: MIC SEL
  MIC: 4 to 8 µg/mL (≈ 5.19 to 10.4 µM)
[2]
  MIC SEL: 2 µg/mL (≈ 2.6 µM)
  change in sensitivity compared to H37Rv (MIC): two-fold increase in sensitivity
[9]
  MIC SEL: 2 to 4 µg/mL
[10]
  MIC SEL: 2 to 4 µg/mL
[3]
  MIC SEL: 2 µg/mL (≈ 2.6 µM)
  change in sensitivity compared to H37Rv (MIC): two-fold increase in sensitivity
[11]
  MIC SEL: 2 to 4 µg/mL
[12]; IC1, read-out: MIC SEL
  MIC: 4 to 8 µg/mL (≈ 5.19 to 10.4 µM)
